This note sets out measurements from the NIST ThermoML archive (doi:10.1016/j.jct.2015.11.025).

Numbers after ± are expanded uncertainties.

Series [1] in a line: Molar enthalpy of transition or fusion. Particulars: Crystal; DSC.
The conditions of series [2]: Crystal.

On to `CCOC(=O)Cc1c(C(=O)OCC)sc(N)c1C#N`, for which, in series [1], the “Molar enthalpy of transition or fusion” value worked out at 9.77 ± 0.263 kcal/mol. Besides, in series [2] (298.15 K, 101.33 kPa, flotation method), the mass density came to 1297 ± 2 kg/m3. Further, the Normal melting temperature in series [2] (DTA) came out at 136.90 ± 1.1 °C.

The term mass density denotes mass per unit of volume.
